Molecules are shown by their SMILES.

Holding throughout (format): functional
Set-up in all cases: scale not given here

The test system of experiment [1] is Schistosoma mansoni.
The subject of experiment [2] is Schistosoma mansoni. This is another data set of the same source.
The subject of experiment [3] is Schistosoma mansoni. This is another data set of the same source.

On to `CCCCCn1c(=N)n(CC(O)COc2cccc(C)c2)c2ccccc21.Cl` (centres undefined), for which the figures for the Toxicity in experiment [1], in experiment [2] and in experiment [3] were 2, 4 and 4, respectively.
As to `CCOc1ccccc1NC(=O)CN1CCN(C(=O)c2ccco2)CC1`, the Toxicity in experiment [1], in experiment [2] and in experiment [3] was 0 each time.
`CCCOCc1cc(CN2CCN(c3cccc(Cl)c3)CC2)c(O)c2ncccc12`: the Toxicity came out at 3 in experiment [1], 4 in experiment [2] and 4 in experiment [3].
As for `CCOc1cc2c(cc1OCC)C(c1cc(OC)c(O)cc1Cl)NCC2` (centres undefined), the Toxicity in experiment [1], in experiment [2] and in experiment [3] was 0 each time.
For the compound `COc1ccc(Br)cc1C1Nc2ccc3ccccc3c2C2=C1C(=O)CC(c1ccccc1)C2` (centres undefined), the Toxicity in experiment [1], in experiment [2] and in experiment [3] was 0 each time.
Take `O=c1c2c([nH]c3ccccc13)CCCC2`: the Toxicity in experiment [1], in experiment [2] and in experiment [3] was 0 in each case.
Take `FC(F)(F)c1cccc(CNC2CCN(CCc3ccccc3)CC2)c1`: the Toxicity in experiment [1], in experiment [2] and in experiment [3] was 0 in each case.
For the compound `CN(N=O)C1=C(NC2CCCCC2)C(=O)c2ccccc2C1=O`, the Toxicity in experiment [1], in experiment [2] and in experiment [3] was 0 in each case.
As for `CC(C)(C)c1ccc(O)c(CNC2CCCCC2)c1`, the Toxicity in experiment [1], in experiment [2] and in experiment [3] was 0 throughout.
On to `CC1=C(CC(=O)c2cccc([N+](=O)[O-])c2)C(=O)c2ccccc2C1=O`, for which the Toxicity in experiment [1] came out at 0; in experiment [2], 2; in experiment [3], 2.
In the case of `COc1ccc2sc(N(Cc3cccnc3)C(=O)c3ccc(C#N)cc3)nc2c1`, the Toxicity in experiment [1], in experiment [2] and in experiment [3] was 0 each time.
As for `COc1ccc2nc(C)cc(Nc3ccccc3O)c2c1`, the Toxicity in experiment [1], in experiment [2] and in experiment [3] was 0 each time.
As to `COc1ccc(CN2CCN(Cc3ccccc3)CC2)c(O)c1`, the Toxicity in experiment [1], in experiment [2] and in experiment [3] was 0 each time.
For `COc1ccc(C(=O)C2CC2c2ccc(Cl)cc2)cc1` (centres undefined), the Toxicity in experiment [1], in experiment [2] and in experiment [3] was 0 throughout.
Take `COc1ccccc1C(=O)ON=C(N)Cc1cccc2ccccc12`: the Toxicity in experiment [1] stood at 1; in experiment [2], 3; in experiment [3], 3.
With `CCOC(=O)C1=C(c2ccccc2)N=c2sc(=Cc3cc(C)n(-c4ccc(F)cc4)c3C)c(=O)n2C1c1cccc(OC)c1OC` (centres undefined), the Toxicity in experiment [1], in experiment [2] and in experiment [3] was 0 throughout.
For `COc1cccc(C2(C)Nc3ccccc3-c3nc4ccccc4n32)c1` (centres undefined), the Toxicity in experiment [1], in experiment [2] and in experiment [3] was 0 in each case.
For the compound `CC1CC2=C(CC1CNCCCN(C)C)C(C)(C)CCC2` (centres undefined), the Toxicity in experiment [1], in experiment [2] and in experiment [3] was 4 each time.
For `COc1ccc(-c2nc(NC(=O)CS(=O)(=O)c3ccc(F)cc3)sc2C)cc1`, the Toxicity in experiment [1], in experiment [2] and in experiment [3] was 0 each time.
On to `COc1ccc(C(C)=O)cc1N1C(=O)C2C(C1=O)C1(c3ccccc3)C(=O)C2(c2ccccc2)C(c2ccc(C)cc2)=C1c1ccc(C)cc1` (centres undefined), for which the Toxicity in experiment [1], in experiment [2] and in experiment [3] was 0 each time.
For the compound `CCOc1ccc(-c2nonc2NC(=O)c2cccc(C)c2)cc1OCC`, the Toxicity in experiment [1], in experiment [2] and in experiment [3] was 0 each time.
`O=C(NCc1ccco1)C1CCN(S(=O)(=O)c2ccc(Cl)cc2)CC1`: the Toxicity in experiment [1], in experiment [2] and in experiment [3] was 0 each time.
As for `Oc1ccc(-c2nc(-c3ccc4oc5ccc(-c6[nH]c(-c7ccc(O)cc7)nc6-c6ccccc6)cc5c4c3)c(-c3ccccc3)[nH]2)cc1`, the Toxicity in experiment [1], in experiment [2] and in experiment [3] was 0 throughout.
Consider `CC(C)(C)c1ccc(C(=O)Nc2c3c(nn2-c2cccc(Cl)c2)CSC3)cc1`, for which the Toxicity in experiment [1], in experiment [2] and in experiment [3] was 0 in each case.
On to `CCOc1cc2c(cc1OCC)C(c1cc(Cl)c(O)c(OCC)c1)NCC2` (centres undefined), for which the Toxicity in experiment [1], in experiment [2] and in experiment [3] was 0 each time.
`COc1ccc(C2c3ccc4ccccc4c3Oc3ncn(CCCn4ccnc4)c(=N)c32)cc1OC` (centres undefined): the Toxicity in experiment [1], in experiment [2] and in experiment [3] was 0 each time.
In the case of `Cc1cc(N(C)C)nc(Nc2ccc(NC(=O)Nc3ccccc3)cc2)n1`, the Toxicity was 0 in experiment [1], 3 in experiment [2] and 3 in experiment [3].
Take `CCOC(=O)c1cnc2ccc(OC)cc2c1Nc1ccc(N2CCN(C)CC2)cc1`: the Toxicity in experiment [1] is reported as 0; in experiment [2] it was 4; in experiment [3], 4.
Take `COc1cccc(Nc2nc(N)c3ccccc3n2)c1.Cl`: the Toxicity in experiment [1], in experiment [2] and in experiment [3] was 0 in each case.
As to `O=C(Nc1ccc(-c2nc3cc(NC(=O)c4ccc(Cl)cc4)ccc3[nH]2)cc1)c1ccc(Cl)cc1`, the values for the Toxicity in experiment [1], in experiment [2] and in experiment [3] were 1, 0 and 0, respectively.
Consider `CCN(CC)c1cc(C)c2cc(NC(=O)c3cccc(OC)c3)ccc2n1`, for which the Toxicity in experiment [1] was determined as 2; in experiment [2], 0; in experiment [3], 0.
For the compound `OC(CNC1CCCCC1)Cn1c2ccc(I)cc2c2cc(I)ccc21` (centres undefined), the Toxicity in experiment [1], in experiment [2] and in experiment [3] was 4 in each case.
Turning to `O=C(NC1CCN(Cc2ccccc2)CC1)c1cc(-c2ccncc2)nc2ccc(Cl)cc12`, the figures for the Toxicity in experiment [1], in experiment [2] and in experiment [3] were 0, 0 and 2, respectively.
On to `CCOc1ccc2nc(C)cc(Nc3ccc(N(C)C)cc3)c2c1.Cl`, for which the Toxicity is 2 in experiment [1], 4 in experiment [2] and 4 in experiment [3].
Take `CN1CCN(c2nc(Nc3ccc(O)cc3)nc3ccccc23)CC1.Cl`: the Toxicity in experiment [1], in experiment [2] and in experiment [3] was 0 each time.
As to `Cc1ccc(-c2cc3c(SCC(=O)Nc4cc(C(F)(F)F)ccc4Cl)nccn3n2)cc1`, the Toxicity in experiment [1], in experiment [2] and in experiment [3] was 0 throughout.
Take `CCCCCCc1cc2cc(-c3nc4ccccc4[nH]3)c(=Nc3ccccc3C)oc2cc1O`: the Toxicity in experiment [1] came out at 0; in experiment [2] it was 3; in experiment [3], 3.
As for `Nc1ccn([C@@H]2O[C@H](CO)[C@@H](O)[C@H]2O)c(=O)n1` [CYTIDINE], the Toxicity in experiment [1], in experiment [2] and in experiment [3] was 0 in each case.

The record behind these values is ChEMBL document CHEMBL2363022, “Malaria Box Schistosomiasis Screening Data” (2013).
